PMC5345165, “Cardiotoxicity evaluation using human embryonic stem cells and induced pluripotent stem cell-derived cardiomyocytes” (Stem Cell Research & Therapy, 2017)

Legend:
hiPSC-CMs = experiment: xCELLigence RTCA Cardio impedance assay on hiPSC-CMs; assay type: cell-based, human; details: for CI (concentration at which cell index is decreased, ↓): arrow ↓ = CI decreased
Description: (§1) Human ESC-CMs were kindly provided by the Institute of Biophysics of the Chinese Academy of Sciences, Beijing, China. Human iPSC-CMs, provided by a domestic manufacturer (Cellapy: CA2001106, Beijing, China), were also examined. Cells were incubated in maintaining medium at 37 °C, 5% CO2, with culture medium refreshed every 2 days. Cells were dissociated and replated into 96-well E-plates (ACEA Biosciences, Hangzhou, China), which was pre-coated with 0.1% gelatin. Cells were plated at a density of 50,000 cells per well.
(§2) Spontaneous cardiomyocytes contraction and cell health were monitored in real-time by impedance using xCELLigence real-time cellular analyzer (RTCA) Cardio system (ACEA Biosciences, Hangzhou, China). Impedance signals were monitored and recorded with 20 s recording per sweep.
(§3) Drug dilutions were equilibrated in a 37 °C, 5% CO2 incubator for 30 min before being applied to E-plates.
(§4) For data analysis, cellular impedance index, beat rate, and amplitude were measured off-line using RTCA Cardio software 1.0 and normalized for each well to the baseline (pre-dose) values measured prior to the compounds treatment. Statistics were performed using SPSS 21.0 (IBM Corp., Armonk, NY, USA). Data were presented as mean ± SEM. Statistical significance of differences was estimated by one-way ANOVA or Student’s t test. p < 0.05 was considered significant.

hESC-CMs = experiment: xCELLigence RTCA Cardio impedance assay on hESC-CMs; assay type: cell-based, human; details: for CI (concentration at which cell index is decreased, ↓): arrow ↓ = CI decreased, NO = no effect
Description: as §1, §2, §3, §4

[1] = hiPSC-CMs, concentration-dependent
[2] = hiPSC-CMs, concentration-dependent effect, impedance
[3] = concentration-dependent effect, impedance

Cc1cccc(CCN2CCC(C(=O)c3ccc(NS(C)(=O)=O)cc3)CC2)n1 [E-4031]
CI amplitude (hiPSC-CMs; hiPSC-CMs, 30 nmol/L, 18 h culture, tended to recover at 24 h): Reduction | time at which spontaneous beating ceased (hiPSC-CMs; hiPSC-CMs, 100 nmol/L): 12 h | spontaneous beating rate (hiPSC-CMs; hiPSC-CMs, 100 nmol/L, 6 h after administration): markedly reduced | time post administration at which spontaneous activity was abolished (hiPSC-CMs; hiPSC-CMs, 300 nmol/L): 2 h | spontaneous beating rate (hiPSC-CMs; hiPSC-CMs, 300 nmol/L, 1 h after administration): significantly reduced | time at which cells recovered automaticity (hESC-CMs; 10 nmol/L): 24 h | time post administration at which spontaneous beating ceased (hESC-CMs; 300 nmol/L): 0.5 h | time of temporary recovery of spontaneous beating activity (hESC-CMs; 300 nmol/L, one recording): 18 h | time post administration at which spontaneous activity ceased (hESC-CMs; 10, 30 and 100 nmol/L): 6 h | spontaneous beating rate (hESC-CMs; all concentrations (10, 30, 100, 300 nmol/L), upon immediate administration): Reduction

O=C(CCCN1CCC(O)(c2ccc(Cl)cc2)CC1)c1ccc(F)cc1 [Haloperidol, haloperidol]
spontaneous beating rate (hiPSC-CMs; hPSC-CMs, 0.1 μmol/L): Mild reduction | time post administration at which beating rate recovered (hiPSC-CMs; hPSC-CMs, 0.1 μmol/L): 18 h | beating rate (hiPSC-CMs; hPSC-CMs, 1 μmol/L, after 0.5 h): significantly reduced | time at which cellular automaticity ceased (hiPSC-CMs; hPSC-CMs, 10 μmol/L): 0.5 h | time at which self-recovery was observed (hiPSC-CMs; hPSC-CMs, 10 μmol/L): 24 h | amplitude compared with controls (hiPSC-CMs; hPSC-CMs, 10 μmol/L, after self-recovery at 24 h): significantly decreased | CI (concentration at which cell index is decreased, ↓) (hiPSC-CMs; hiPSC-CMs): 10↓ μmol•L^-1 | effect on CI and pulse signals (hiPSC-CMs; [1]): reduced | IC50/EC50 (IC50) (hiPSC-CMs; [2]): 5170 nM | beating rate (hESC-CMs; 0.01 μmol/L, 6 h post administration): mild reduction | spontaneous beating rate and amplitudes (hESC-CMs; 0.1 μmol/L): significantly reduced | time at which cellular automaticity ceased (hESC-CMs; 1 μmol/L): 0.5 h | time post administration at which partial recovery was observed (hESC-CMs; 1 μmol/L): 24 h | self-recovery after abolished spontaneous beating (hESC-CMs; 10 μmol/L, investigation period): no self-recovery | effect on CI and pulse signals (hESC-CMs; concentration-dependent): reduced | IC50/EC50 (IC50) (hESC-CMs; [3]): 140 nM

CC(C)NCC(O)c1ccc(O)c(O)c1 (stereo not drawn) [Isoprenaline, isoprenaline]
amplitude (hiPSC-CMs; hPSC-CMs, 0.1, 1 and 10 μmol/L): increased | time at which beating rate recovered (hiPSC-CMs; hiPSC-CMs, 0.1, 1 and 10 μmol/L): 24 h | beating rate (hiPSC-CMs; hiPSC-CMs, 0.1, 1 and 10 μmol/L, after 0.5 h of administration): significantly increased | CI (concentration at which cell index is decreased, ↓) (hiPSC-CMs; hiPSC-CMs): 1↓ μmol•L^-1 | effect on CI (hiPSC-CMs; [1]): decrease | IC50/EC50 (EC50) (hiPSC-CMs; [2]): 30 nM | time after which beating rate recovered (hESC-CMs; 0.01 μmol/L): 12 h | spontaneous beating rate (hESC-CMs; 0.01 μmol/L, 0.5 h post injection): increased | time at which automaticity recovered (hESC-CMs; 0.1, 1 and 10 μmol/L): 24 h | cellular automaticity (hESC-CMs; 0.1, 1 and 10 μmol/L, 0.5 h post injection): significantly increased | CI (concentration at which cell index is decreased, ↓) (hESC-CMs): 0.1↓ μmol•L^-1 | CI (concentration at which cell index is decreased, ↓) (hESC-CMs; listed as isoprenaline): ≥ 0.1 µmol/L | IC50/EC50 (EC50) (hESC-CMs; [3]): 40 nM

C=C[C@H]1C[N@@]2CC[C@H]1C[C@@H]2[C@@H](O)c1ccnc2ccc(OC)cc12 [Quinidine, quinidine]
concentration that weakened the amplitudes of pulse signals (hiPSC-CMs; hiPSC-CMs): ≥ 12.5 µmol/L | time after which beating rate spontaneously recovered (hiPSC-CMs; hiPSC-CMs, 3.13 μmol/L): 1 h | beating rate (hiPSC-CMs; hiPSC-CMs, 3.13 μmol/L, 0.5 h after administration): markedly reduced | time after which amplitude recovered (hiPSC-CMs; hiPSC-CMs, 12.5 μmol/L): 2 h | amplitude (hiPSC-CMs; hiPSC-CMs, 12.5 μmol/L, 0.5 h and 1 h post administration): substantially reduced | self-recovery of automaticity within the observation period (hiPSC-CMs; hiPSC-CMs, 50 and 100 μmol/L): without self-recovery | time after administration at which cellular automaticity ceased (hiPSC-CMs; hiPSC-CMs, 50 and 100 μmol/L): 0.5 h | CI (concentration at which cell index is decreased, ↓) (hiPSC-CMs; hiPSC-CMs): 100↓ μmol•L^-1 | effect on CI (hiPSC-CMs; [1]): reduced | IC50/EC50 (IC50) (hiPSC-CMs; [2]): 13970 nM | time at which spontaneous beating recovered (hESC-CMs; 12.5 μmol/L): 6 h | time at which spontaneous beating recovered (hESC-CMs; 50 μmol/L): 24 h | self-recovery after abolished cellular automaticity (hESC-CMs; 100 μmol/L): without observing self-recovery | effect on CI (hESC-CMs; 100 μmol/L, when perfusion was initiated): significant temporary decrease | time post administration at which spontaneous beating ceased (hESC-CMs; 12.5 and 50 μmol/L): 0.5 h | CI (concentration at which cell index is decreased, ↓) (hESC-CMs): 100↓ μmol•L^-1 | concentration that weakened the pulse signals (hESC-CMs; concentration-dependent): ≥ 3.13 µmol/L | IC50/EC50 (IC50) (hESC-CMs; [3]): 2180 nM
